Reference: ChEMBL document CHEMBL1201862, “PubChem BioAssay data set” (2004)
Calls of active or inactive are those of the source.

Tests used:
[1] = HEp-2 cell cytotoxicity, dose response, cytotoxicity control for RSV inhibitor project, HTS (AID 2410); assay type: functional; conditions: human respiratory syncytial virus
Streptokinase A = biological target: T1, Streptokinase A (Streptococcus pyogenes serotype M1, UniProt P10520); test: S. pyogenes streptokinase expression inhibitors, potency, dose response, plasminogen activation absorbance, OD405 (AID 1914); assay type: functional, Streptococcus pyogenes M1 GAS;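 also: secreted streptokinase activity via plasminogen activation per viability signal from cell pellet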
T1 sequence (P10520 whole entry): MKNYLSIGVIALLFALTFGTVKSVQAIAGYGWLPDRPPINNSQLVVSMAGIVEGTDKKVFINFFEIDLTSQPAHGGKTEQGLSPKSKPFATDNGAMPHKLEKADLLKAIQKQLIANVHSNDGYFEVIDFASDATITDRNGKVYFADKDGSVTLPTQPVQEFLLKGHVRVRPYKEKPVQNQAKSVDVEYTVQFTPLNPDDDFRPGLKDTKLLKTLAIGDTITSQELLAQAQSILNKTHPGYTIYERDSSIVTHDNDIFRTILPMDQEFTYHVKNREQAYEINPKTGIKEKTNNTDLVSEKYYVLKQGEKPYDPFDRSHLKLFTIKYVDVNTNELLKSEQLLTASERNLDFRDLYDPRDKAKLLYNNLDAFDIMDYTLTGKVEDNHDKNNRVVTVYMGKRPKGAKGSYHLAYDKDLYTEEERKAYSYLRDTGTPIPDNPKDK

Streptococcus = test: Group A Streptococcus viability loss, dose response, counter-screen for streptokinase expression inhibitor project, luminescence, BacTiterGlo (AID 1915); assay type: functional, organism-based;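 also: potency for reduction of bacterial viability or growth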
[2] = tested on: Streptococcus sp. 'group A'; test: growth inhibition of control SK(-) GAS strain, dose response, counter-screen for streptokinase expression inhibitor project, luminescence, kanamycin, BacTiterGlo, confirmation (AID 1900); assay type: functional, organism-based
Cytochrome P450 2D6 = Cytochrome P450 2D6 (Homo sapiens, UniProt P10635);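 also: CYP2D6 member of a cytochrome P450 panel assay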
Chain of Cytochrome P450 2D6 (P10635 whole entry): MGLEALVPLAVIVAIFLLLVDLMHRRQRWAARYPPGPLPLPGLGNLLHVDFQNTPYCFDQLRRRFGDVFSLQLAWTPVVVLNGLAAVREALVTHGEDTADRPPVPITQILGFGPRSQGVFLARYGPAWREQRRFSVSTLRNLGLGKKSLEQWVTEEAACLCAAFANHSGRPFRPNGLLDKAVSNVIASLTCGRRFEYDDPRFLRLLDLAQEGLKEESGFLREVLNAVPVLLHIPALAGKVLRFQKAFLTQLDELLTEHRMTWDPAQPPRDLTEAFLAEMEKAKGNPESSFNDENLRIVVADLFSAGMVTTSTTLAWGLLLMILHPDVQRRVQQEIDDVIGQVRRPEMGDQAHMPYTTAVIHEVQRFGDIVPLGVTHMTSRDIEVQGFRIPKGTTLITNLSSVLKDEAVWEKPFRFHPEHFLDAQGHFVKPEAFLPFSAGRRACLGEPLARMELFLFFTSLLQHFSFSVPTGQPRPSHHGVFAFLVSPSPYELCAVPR

Cytochrome P450 2C19 = Cytochrome P450 2C19 (Homo sapiens, UniProt P33261); test: Cytochrome panel assay with activity outcomes. Panel member name: p450-cyp2c19 Compounds with AC50 equal or less than 10 uM are considered active; assay type: functional; conditions: read-out: AC50
Chain of Cytochrome P450 2C19 (P33261 whole entry): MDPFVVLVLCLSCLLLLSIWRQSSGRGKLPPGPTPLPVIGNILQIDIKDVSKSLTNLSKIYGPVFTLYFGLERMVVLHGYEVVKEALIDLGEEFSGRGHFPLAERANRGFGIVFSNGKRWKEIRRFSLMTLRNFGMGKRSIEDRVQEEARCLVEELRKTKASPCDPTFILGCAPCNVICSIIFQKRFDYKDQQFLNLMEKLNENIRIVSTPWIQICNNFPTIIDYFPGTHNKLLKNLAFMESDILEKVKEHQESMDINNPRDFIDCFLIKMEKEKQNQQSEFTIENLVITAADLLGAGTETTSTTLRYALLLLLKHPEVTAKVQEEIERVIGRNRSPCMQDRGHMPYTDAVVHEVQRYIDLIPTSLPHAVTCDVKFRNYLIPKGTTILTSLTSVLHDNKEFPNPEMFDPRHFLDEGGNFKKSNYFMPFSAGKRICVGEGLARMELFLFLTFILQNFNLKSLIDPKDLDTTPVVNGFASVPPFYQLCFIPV

H4 = test: Luminescence Cell-Based Dose Response HTS to Identify Activators of 5'UTR Stem-Loop Driven Prion Protein mRNA Translation in H4 Neuroglioblastoma Cells. [Related pubchem assays: 1829 (Project Summary), 1814 (Primary HTS)]; assay type: functional; conditions: Homo sapiens
[3] = Luminescence Cell-Based Dose Response HTS to Identify Activators of Luciferase Translation or Activity in H4 […] Cells. [Related pubchem assays: 1829 (Project Summary), 1814 (Primary HTS)]; assay type: functional
[4] = Luminescence Cell-Based Dose Retest to Confirm Inhibitors of Cancer Stem Cells. [Related pubchem assays (depositor defined):AID2717, AID2721]; assay type: functional; conditions: Homo sapiens
[5] = biological target: T2, Corticotropin-releasing factor receptor 2/Corticotropin-releasing factor-binding protein (Homo sapiens, UniProt P24387+Q13324); test: activators of CRF receptor 2 with binding protein – uHTS hits, confirmation (AID 602473); assay type: functional; conditions: read-out: EC50_Mean
T2 sequence (Q13324 whole entry): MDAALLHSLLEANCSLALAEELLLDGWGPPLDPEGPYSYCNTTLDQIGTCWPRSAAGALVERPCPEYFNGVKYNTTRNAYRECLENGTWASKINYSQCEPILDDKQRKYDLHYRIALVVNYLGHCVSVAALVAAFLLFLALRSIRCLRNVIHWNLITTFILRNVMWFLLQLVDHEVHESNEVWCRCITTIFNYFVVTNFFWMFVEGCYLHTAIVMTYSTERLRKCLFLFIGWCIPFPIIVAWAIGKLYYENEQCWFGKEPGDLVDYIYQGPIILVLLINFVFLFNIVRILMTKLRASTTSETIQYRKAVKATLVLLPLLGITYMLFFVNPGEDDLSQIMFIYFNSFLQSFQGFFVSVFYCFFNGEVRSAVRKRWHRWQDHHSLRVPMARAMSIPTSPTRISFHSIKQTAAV
T2 sequence (P24387 whole entry): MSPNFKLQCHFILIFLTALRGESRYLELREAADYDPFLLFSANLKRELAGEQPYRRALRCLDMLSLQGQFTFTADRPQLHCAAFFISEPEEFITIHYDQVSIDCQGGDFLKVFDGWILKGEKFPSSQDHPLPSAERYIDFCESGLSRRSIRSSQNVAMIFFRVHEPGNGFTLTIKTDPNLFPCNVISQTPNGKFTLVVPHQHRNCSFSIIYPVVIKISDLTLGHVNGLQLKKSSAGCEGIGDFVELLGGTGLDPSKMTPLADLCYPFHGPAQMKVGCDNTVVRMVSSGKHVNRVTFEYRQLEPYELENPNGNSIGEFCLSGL

[6] = control 3'UTR Renilla luciferase suppression, dose response, counter-screen for Shn3 inhibitor project, cell-based, Clone20-Shn3RL, cherry-picked (AID 624133); assay type: functional
Cytochrome P450 1A2 = biological target: T3, Cytochrome P450 1A2 (Homo sapiens, UniProt P05177);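 also: PubChem cytochrome P450 panel assay, CYP1A2 panel member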
T3 sequence (P05177 whole entry): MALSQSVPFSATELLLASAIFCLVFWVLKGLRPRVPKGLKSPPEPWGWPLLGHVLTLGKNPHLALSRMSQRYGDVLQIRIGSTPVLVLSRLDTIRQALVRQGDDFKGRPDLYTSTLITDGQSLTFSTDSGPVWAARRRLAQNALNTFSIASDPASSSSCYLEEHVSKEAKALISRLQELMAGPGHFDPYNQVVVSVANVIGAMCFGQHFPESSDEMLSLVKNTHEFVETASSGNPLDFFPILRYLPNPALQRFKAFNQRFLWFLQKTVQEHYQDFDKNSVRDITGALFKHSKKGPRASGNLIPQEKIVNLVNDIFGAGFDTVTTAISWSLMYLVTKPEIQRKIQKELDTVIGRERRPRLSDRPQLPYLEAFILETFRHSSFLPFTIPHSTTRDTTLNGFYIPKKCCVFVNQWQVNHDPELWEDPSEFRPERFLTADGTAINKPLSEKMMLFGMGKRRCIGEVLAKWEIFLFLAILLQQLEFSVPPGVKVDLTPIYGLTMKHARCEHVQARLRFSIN

CCOC(=O)c1c(NC(=O)/C=C\C(=O)O)sc(C)c1-c1ccccc1
CC50 [1]: 19.4 µM (active)

COc1ccc(C(=O)NC2CCCCCC2)cc1S(=O)(=O)N1CCOCC1
EC50 (Streptokinase A): > 150 µM (not active) | EC50 (Streptococcus): > 150 µM (not active) | EC50 [2]: > 150 µM (not active)

CC(C)c1nc(N2CCCC2)c(C#N)c2c1CCCC2
EC50 (Streptokinase A): > 150 µM (not active) | EC50 (Streptococcus): 7.01 µM (active) | EC50 [2]: 4.2 µM (active)

CN(C)/C=C1\SC(=S)N(c2ccc(Br)cc2)C1=O
EC50 (Streptokinase A): 17.2 µM (active) | EC50 (Streptococcus): 52.3 µM (active) | EC50 [2]: 7.37 µM (active)

Clc1ccccc1CN(Cc1ccccc1)c1ncnc2nc[nH]c12
EC50 (Streptokinase A): > 150 µM (not active)

COc1ccc(-c2cnc(SCC(=O)Nc3nc(C(C)(C)C)cs3)n2Cc2ccco2)cc1
CC50 [1]: 9.59 µM (active)

CC(C)S(=O)(=O)c1csc(NC(=O)Nc2ccc(Cl)cc2)c1Cl
EC50 (Streptokinase A): 74.3 µM (active) | EC50 (Streptococcus): > 150 µM (not active) | EC50 [2]: 12.1 µM (active)

Cc1ccccc1OCC(=O)Nc1ccccc1N1CCC(C)CC1
EC50 (Streptokinase A): 45 µM (active) | EC50 (Streptococcus): 11.1 µM (active) | EC50 [2]: 6.64 µM (active)

N=C(N)S[C@H]1c2ccccc2-c2cc([N+](=O)[O-])ccc21
AC50 (Cytochrome P450 2D6): 2.51 µM (inconclusive) | AC50 (Cytochrome P450 2C19): 631 nM (inconclusive)

O=C(Nc1ccccc1)N1CCC2(CCNCC2)CC1
AC50 (Cytochrome P450 2D6): 25.1 µM (inconclusive)

CC(=O)c1cccc(NC(=O)C(=O)Nc2cccc3ccccc23)c1
EC50 (H4): 10.7 µM (active) | EC50 [3]: 13.3 µM (active)

c1ccc(CCNc2nc(-c3ccccn3)cs2)cc1
EC50 (Streptokinase A): > 150 µM (not active) | EC50 (Streptococcus): 14.2 µM (active) | EC50 [2]: 7.29 µM (active)

COc1cc(OC)cc(C(=O)Nc2nc3ccccc3[nH]2)c1
EC50 (Streptokinase A): > 150 µM (not active) | EC50 (Streptococcus): > 150 µM (not active) | EC50 [2]: 7.14 µM (active)

O=C(Nc1ccc(-c2cn3ccsc3n2)cc1)C1CC1
EC50 (H4): 4.21 µM (active) | EC50 [3]: 0.487 µM (active)

COc1ccc(-c2nc(N)nc(C)c2Oc2ccccc2Br)c(O)c1
AC50 [4]: 1.96 µM (active)

CC(=O)c1ccc(NC(=S)NC(=O)Cc2ccc(Cl)cc2)cc1
EC50 [5]: 13.2 µM (active)

CCC(C)Sc1cccc(-c2nc3cc(C)ccn3c2NCc2ccccc2)c1 (stereo not given)
AC50 [4]: 5.14 µM (active)

COc1ccc(C2CC(c3ccc(Br)cc3)=NN2C(=O)CSC2=NCCS2)cc1 (stereo not given)
CC50 [1]: 24.1 µM (active)

Cc1ccc2c[nH]nc2c1[N+](=O)[O-]
CC50 [1]: 42.8 µM (active)

CN(C)Cc1ccccc1-c1cc(NCc2ccccc2)ncn1
AC50 (Cytochrome P450 2D6): 15.8 µM (inconclusive)

O=CNn1cnc2c(oc3nc(-c4ccccc4)cc(-c4ccco4)c32)c1=O
CC50 [1]: 9.82 µM (active)

O=C1NC(=O)/C(=C/c2c[nH]c3ccc(Br)cc23)N1
CC50 [1]: 24.8 µM (active)

CC(=O)Nc1ccc(-c2csc(NC(=O)Cc3ccccc3F)n2)cc1
AC50 [4]: 9.04 µM (active)

Cc1cccc(CNc2cc(-c3cccc(C#N)c3)ncn2)c1
AC50 (Cytochrome P450 2D6): 25.1 µM (inconclusive)

CC(=O)c1cccc(NC(=S)NC(=O)Cc2ccc(Cl)cc2)c1
EC50 [5]: > 53 µM (inactive)

COc1c(C)cc(C(=O)C2CCCN(C(=O)c3cccc(-n4cccn4)c3)C2)cc1C (stereo not given)
AC50 [6]: > 70 µM (inactive)

O=C(Nc1ccc(OC(F)(F)F)cc1)C1CCCN(S(=O)(=O)c2c[nH]cn2)C1 (stereo not given)
EC50 (Streptokinase A): > 150 µM (not active) | EC50 (Streptococcus): > 150 µM (not active) | EC50 [2]: > 150 µM (not active)

FC(F)(F)c1ccccc1-c1cc(NCc2cccs2)ncn1
AC50 (Cytochrome P450 2D6): 25.1 µM (inconclusive)

Cc1ccc(Cn2nnc3c(O)nc(C4CCN(C(=O)Cc5cccs5)CC4)nc32)cc1
AC50 (Cytochrome P450 1A2): 31.6 µM (inconclusive) | AC50 (Cytochrome P450 2D6): 17.8 µM (inconclusive)

CCOC(=O)c1ccc(COC(=O)c2ccc3c(c2)-c2ccccc2C3=O)cc1
CC50 [1]: 20.8 µM (active)

O=C1C=C(c2cc(C(F)(F)F)cc(C(F)(F)F)c2)C[C@@H](c2ccc(Cl)cc2)C1
CC50 [1]: 17.3 µM (active)

CC(=O)Nc1ccc(C2CC(c3ccc(Cl)cc3)=NN2c2ccccc2)cc1 (stereo not given)
AC50 [4]: 1.64 µM (active) | CC50 [1]: 47.5 µM (active)

Oc1cccc(Nc2nc(O)c(/C=C3\C=Nc4ccccc43)s2)c1
CC50 [1]: 15.3 µM (active)

CCC(C)c1ccc(C(C)N=C(S)NC2CCCCC2)cc1 (stereo not given)
EC50 (Streptokinase A): 146 µM (active) | EC50 (Streptococcus): 18.1 µM (active) | EC50 [2]: 8.05 µM (active)

COc1ccc2[nH]cc(CCNc3ncnc4ccc(-c5cccc(C#N)c5)cc34)c2c1
AC50 (Cytochrome P450 2D6): 3.16 µM (inconclusive)

CCOc1ccc(CCNC(=O)C2CC(=O)N(C3CCCC3)C2)cc1OCC (stereo not given)
AC50 (Cytochrome P450 2D6): 0.0282 µM (inconclusive) | AC50 (Cytochrome P450 2C19): 63.1 nM (inconclusive)

CCOc1cc(/C=N/O)cc(Br)c1OCc1ccc(Cl)cc1
AC50 [4]: 3.77 µM (active)

O=[N+]([O-])c1ccc(-c2ccc(/C=N/Nc3nc(N4CCCCC4)nc(N4CCCCC4)n3)o2)cc1
EC50 [5]: 5.96 µM (active)

O=C(Cn1nc(C(F)F)cc1C(F)F)N/N=C/c1ccc2c(c1)OCO2
AC50 (Cytochrome P450 2D6): 2.82 µM (inconclusive)

C(=N\Nc1nc(N2CCCCCC2)nc(N2CCCCCC2)n1)/c1ccccc1
CC50 [1]: 28.4 µM (active)

O=c1c(-c2ccccc2)coc2cc(O)ccc12 [7-HYDROXY ISOFLAVONE]
CC50 [1]: 46.3 µM (active)
